Patent US11608380B2, “Anti-EGFRvIII antibodies and uses thereof” (REGENERON PHARMACEUTICALS, INC., priority 2014, dated 2023)

Experiments:
[1] = test system: U251/hEGFRvIII; assay: Cell viability (CCK8) cell kill assay; format: cell-based, human; conditions: Table 18B
Protocol: (§1) All cells were generated via lipofectamine 2000 based methodologies and were cultured in complete growth media in the presence of G418.
(§2) Next, the ability of anti-human EGFRvIII antibodies conjugated to the maytansine toxin DM1 to reduce cell viability was determined using in vitro cell based assays. Cells were seeded in PDL-coated 96 well plates at 250-2000 cells per well in complete growth media and allowed to grow overnight. For cell viability curves, ADCs or free drug (DM1-SMe) was added to cells at final concentrations ranging from 500 nM to 5 μM and incubated for 3 days. […] Background OD450 levels from digitonin (40 nM) treated cells was subtracted from all wells and viability is expressed as a percentage of the untreated controls. IC50 values were determined from a four-parameter logistic equation over a 10-point response curve (Graph Pad Prism). IC50 values are in nM and are normalized for the particular drug/antibody ratio (DAR).

[2] = test system: HEK293/hEGFRvIII; assay: Cell viability (CCK8) cell kill assay; format: cell-based, human
Protocol: as §1, §2

[3] = test system: HEK293/hEGFRwt; assay: Cell viability (CCK8) cell kill assay; format: cell-based, human; conditions: Table 18A
Protocol: as §1, §2

[4] = test system: MMT/hEGFRvIII; assay: Cell viability (CCK8) cell kill assay; format: cell-based, human
Protocol: as §1, §2

[5] = test system: U251; assay: Cell viability (CCK8) cell kill assay; format: cell-based; conditions: Table 18A
Protocol: (§3) Next, the ability of anti-human EGFRvIII antibodies conjugated to the maytansine toxin DM1 to reduce cell viability was determined using in vitro cell based assays. Cells were seeded in PDL-coated 96 well plates at 250-2000 cells per well in complete growth media and allowed to grow overnight. For cell viability curves, ADCs or free drug (DM1-SMe) was added to cells at final concentrations ranging from 500 nM to 5 μM and incubated for 3 days. Cells were incubated with CCK8 (Dojindo) for the final 1-3 h and the absorbance at 450 nm (OD450) was determined on the Flexstation3 (Molecular Devices). Background OD450 levels from digitonin (40 nM) treated cells was subtracted from all wells and viability is expressed as a percentage of the untreated controls. IC50 values were determined from a four-parameter logistic equation over a 10-point response curve (Graph Pad Prism). IC50 values are in nM and are normalized for the particular drug/antibody ratio (DAR).

[6] = test system: MMT; assay: Cell viability (CCK8) cell kill assay; format: cell-based
Protocol: as §3

[7] = test system: HEK293; assay: Cell viability (CCK8) cell kill assay; format: cell-based
Protocol: as §3

[8] = test system: Control peptide; assay: Antibody specificity by ELISA; conditions: ELISA binding, irrelevant peptide
Protocol: (§4) To further characterize anti-hEGFRvIII mAbs, their binding specificity was examined by ELISA. […] For the junctional peptides that were linked to biotin either at C-terminal (SEQ ID NO:149) or N-terminal (SEQ ID NO:150) via a linker, plates were pre-coated with avidin. Also, coated was an irrelevant peptide (control peptide) with or without biotin at its N-terminal. Anti-EGFRvIII antibodies as well as an isotype control antibody were added to coated plates and allowed to incubate for 1 hour at 25° C. The plates were then washed and bound anti-EGFRvIII mAbs were detected with anti-human Fc antibodies conjugated with horse-radish peroxidase (HRP). Plates were developed with a tetra-methyl-benzidine (TMB) substrate solution to produce a colorimetric reaction and neutralized with sulfuric acid before reading absorbance at 450 nm on a VICTOR™ X5 plate reader. Data analysis used a sigmoidal dose-response model within PRISM™ software. […] NT: Not tested. Controls I-III: As described above.

[9] = test system: N-term Biotin control peptide; assay: Antibody specificity by ELISA; conditions: ELISA binding, irrelevant peptide with N-terminal biotin
Protocol: as §4

[10] = target: EGFR-mFc (Homo sapiens, UniProt P00533); assay: SPR (BIACORE) binding kinetics, receptor-capture format; conditions: 37° C., EGFR-mFc captured, NB=no binding
Protocol: (§5) Measurements were conducted on a T100 BIACORE™ instrument. […] In the receptor-capture format, either EGFRvIII-mFc or EGFR-mFc, was captured on the BIACORE™ chip and the respective antibodies flowed over. Kinetic association (ka) and dissociation (kd) rate constants were determined by processing and fitting the data to a 1:1 binding model using Scrubber 2.0 curve fitting software. Binding dissociation equilibrium constants (KD) and dissociative half-lives (t1/2) were calculated from the kinetic rate constants as: KD (M)=kd/ka; and t1/2 (min)=ln 2/(60*kd).

[11] = test system: HEK293 cells; assay: FACS cell binding selectivity; format: cell-based; conditions: directly labeled (ALEXA FLUOR 488) antibodies, 10 μg/ml
Protocol: To determine the specificity of the anti-EGFRvIII mAbs, their binding to HEK293, HEK293 cells expressing EGFRvIII (HEK293/EGFRvIII) and A431 cells, was analyzed by fluorescence activated cell sorting (FACS). HEK293/EGFRvIII cells were prepared by transfecting HEK293 cells with neomycin resistant DNA vectors constitutively expressing full-length hEGFRvIII (SEQ ID NO:147) using LIPOFECTAMINE™ 2000 transfection reagent (INVITROGEN™). At two days post-transfection, cells were placed under G418 selection for approximately two weeks. Populations positively expressing EGFRvIII were isolated via fluorescence activated cell sorting (FACS). The HEK293 cells expressing ˜3×10^6 copies of EGFRvIII per cell were used in the experiment. Briefly, the anti-EGFRvIII antibodies at 10 μg/ml were incubated with cells for 30 minutes at room temperature, washed, incubated with secondary antibody, i.e., phycoerythrin (PE)-labeled goat F(ab′)2 against human IgG (cat #109-116-170, Jackson ImmunoResearch Laboratories), followed by a final wash before FACS analysis. In another set of experiment, anti-EGFRvIII antibodies were directly conjugated via their lysine residues with the fluorescent dye, ALEXA FLUOR® 488 Dye (INVITROGEN™), thereby eliminating the step using the secondary antibody. […] Controls I, II, III, IV and V are described above. MFI: Mean Fluorescence Intensity.

[12] = target: C-term biotin J-peptide (Homo sapiens, UniProt P00533, DELINS30-297G); assay: Antibody specificity by ELISA; conditions: ELISA binding, avidin pre-coated plates
Protocol: (§6) To further characterize anti-hEGFRvIII mAbs, their binding specificity was examined by ELISA. […] For the junctional peptides that were linked to biotin either at C-terminal (SEQ ID NO:149) or N-terminal (SEQ ID NO:150) via a linker, plates were pre-coated with avidin. Also, coated was an irrelevant peptide (control peptide) with or without biotin at its N-terminal. Anti-EGFRvIII antibodies as well as an isotype control antibody were added to coated plates and allowed to incubate for 1 hour at 25° C. The plates were then washed and bound anti-EGFRvIII mAbs were detected with anti-human Fc antibodies conjugated with horse-radish peroxidase (HRP). […] Data analysis used a sigmoidal dose-response model within PRISM™ software.

[13] = target: EGFR-mmh (Homo sapiens, UniProt P00533); assay: Antibody specificity by ELISA; conditions: read-out: EC50 EGFR-mmh (25° C.), ELISA binding, plate coated with EGFR-mmh
Protocol: as §6

[14] = target: N-term biotin J-peptide (Homo sapiens, UniProt P00533, DELINS30-297G); assay: Antibody specificity by ELISA; conditions: ELISA binding, avidin pre-coated plates
Protocol: as §6

[15] = target: EGFRvIII-mmh (Homo sapiens, UniProt P00533, DELINS30-297G); assay: Antibody specificity by ELISA; conditions: ELISA binding, plate coated with EGFRvIII-mmh
Protocol: as §6

[16] = target: junctional peptide (J-peptide) (Homo sapiens, UniProt P00533, DELINS30-297G); assay: Antibody specificity by ELISA; conditions: ELISA binding
Protocol: as §6

[17] = test system: EGFRvIII-mFc; format: binding, human
Protocol: as §5

[18] = Table 19, HEK293/hEGFRvIII (high)
[19] = Table 20, HEK293/hEGFRvIII, single ADC or 1:1 pairwise combination
[20] = Table 20, MMT/hEGFRvIII, single ADC or 1:1 pairwise combination
[21] = Table 20, MMT, single ADC or 1:1 pairwise combination
[22] = Table 20, HEK293, single ADC or 1:1 pairwise combination
[23] = 37° C., receptor-capture, EGFRvIII-mFc captured

For DM1-SMe, the “% Kill” value [1] was 83%, the IC50 ([1]; 3 days, normalized for DAR) was 1.2 nM and the “% Kill” value ([2]; Table 18A, HEK293/hEGFRvIII) was 99%. The IC50 ([2]; Table 18A, HEK293/hEGFRvIII, 3 days, normalized for DAR) was 0.6 nM, the “% Kill” value [2, 18] was 99% and the IC50 [2, 18] was 0.25 nM. For the same molecule, the “% Kill” value [2, 19] was 97%, the IC50 [2, 19] was 0.28 nM and the “% Kill” value [3] was 95%. For the same molecule, the IC50 ([3]; 3 days, normalized for DAR) was 0.57 nM, the “% Kill” value ([4]; Table 18B, MMT/hEGFRvIII) was 100% and the IC50 ([4]; Table 18B, MMT/hEGFRvIII, 3 days, normalized for DAR) was 0.7 nM. For the same molecule, the “% Kill” value ([4]; Table 19, MMT/hEGFRvIII (high)) was 99%, the IC50 ([4]; Table 19, MMT/hEGFRvIII (high)) was 0.18 nM and the “% Kill” value [4, 20] was 100%. For the same molecule, the IC50 [4, 20] was 0.19 nM, the “% Kill” value ([5]; U251) was 81% and the IC50 ([5]; U251, 3 days, normalized for DAR) was 1.8 nM. The “% Kill” value ([6]; Table 18B, MMT) was 96%, the IC50 ([6]; Table 18B, MMT, 3 days, normalized for DAR) was 0.6 nM and the “% Kill” value ([6]; Table 19, MMT) was 100%. For the same molecule, the IC50 ([6]; Table 19, MMT) was 0.15 nM, the “% Kill” value [6, 21] was 100% and the IC50 [6, 21] was 0.19 nM. The “% Kill” value ([7]; Table 18A, HEK293) was 97%, the IC50 ([7]; Table 18A, HEK293, 3 days, normalized for DAR) was 0.31 nM and the “% Kill” value ([7]; Table 19, HEK293) was 98%. For the same molecule, the IC50 ([7]; Table 19, HEK293) was 0.19 nM, the “% Kill” value [7, 22] was 96% and the IC50 [7, 22] was 0.21 nM.

B1: H1H1915N: human IgG1 Fc anti-EGFRvIII antibody with variable domains 1915; HCVR/LCVR SEQ ID NOs 82/90 (antibody, V domains shown)
VH: QVQLVESGGGVVQPGRSLRLSCAASGFTFSAYAMHWVRQAPGKGLEWVAVIWYDGSNKNYADSVKGRFTVSRDNSKNTLYLEMNSLRAEDTAVYYCARDLMVGVTNYWGQGTLVTVST
VL: DVVMTQSPLSLPVALGQPASISCRSSQSLVYTDGNTYLNWFHQRPGQSPRRLIYKVSNRDSGVPDRFTGSGSGTDFTLKISRVEAEDVGVFYCMQGSHWPPYTFGQGTKLEIK
modifications: human IgG1 Fc
For B1, the EC50 [8] was > 10 nM, the EC50 [9] was > 10 nM and the ka [10] was 43500 M⁻¹ s⁻¹. For the same molecule, the kd [10] was 0.00801 s⁻¹, the “Parental HEK293 MFI” value [11] was 3461 and the EC50 [12] was > 10 nM. For the same molecule, the EC50 [13] was > 10 nM, the EC50 [14] was > 10 nM and the “EC50 EGFRvIII-mmh (25° C.)” value [15] was “strong binding”. For the same molecule, the EC50 [16] was > 10 nM, the ka [17, 23] was 100000 M⁻¹ s⁻¹ and the kd [17, 23] was 0.000328 s⁻¹. The “selectivity for EGFRvIII over wild-type EGFR” value ([17]; receptor capture format (Table 4)) was “greatest selectivity”.
